Experiments:
14-3-3γ/ERRγ complex [1] = biological target: T1, 14-3-3γ/ERRγ complex (Homo sapiens, UniProt P61981+P62508); test: Peptide washout experiment on immobilized 14-3-3γ/ERRγ complex; assay type: binding; settings: 100 μM compound; for total recovered ERRγ peptide: 5 washing steps of 20 min, normalized to recovery without 14-3-3γ; for initial peptide recovery: first washing step (DMSO 63%)
T1 construct: made in house; host or cells: E. coli NiCo21 (DE3)
Method: Next, a washout experiment was performed to understand ternary 14-3-3/ERRγ/molecular lock complex dissociation. Fluorescein-labeled ERRγ was incubated overnight with biotin-functionalized 14-3-3γ in the presence of either DMSO, disulfide 1, aldehyde 3, or molecular lock 5 and subsequently immobilized on streptavidin-functionalized magnetic beads (Figure S17a). The beads were then washed five times in a peptide and compound-free buffer. During each wash step, the beads were incubated in the buffer for 20 min to allow dissociation of the ERRγ peptide from the immobilized 14-3-3γ. The fluorescence was then measured for all samples before capture, after capture, and after each washing step (Figure S17b), and the amount of peptide recovery was calculated. […] The analysis of individual washing steps provided further insight into the ternary complex dissociation kinetics (Figure 3e).
Figure S17. Washout experiment. (a) Schematic representation of washout experiment. Biotinylated 14-3-3γ (5 µM), fluorescein-labelled ERRγ 9-mer peptide (200 nM) and dual-reactive molecular lock 5 were preincubated overnight to form a ternary ‘crosslinked’ complex. This complex was immobilized on streptavidin-functionalized magnetic beads. Complex-functionalized beads were subsequently washed […] with 50 µL buffer. For each wash step, the complex was incubated 20 minutes in the buffer before removal to allow dissociation of the ERRγ peptide from the ternary complex. From samples before and after capturing, and from all wash fractions, we have measured the fluorescence to determine the amount of ERR γ peptide in each fraction. (b) Fluorescence signal of fluorescein-labelled ERRγ peptide after washout experiment. Samples are present for FAM - ERRγ incubated with and without biotinylated 14 -3-3γ and in presence of either DMSO (negative control), disulfide compound 1, aldehyde compound 3 or dual-reactive compound 5. Fluorescence was measured from samples before and after capturing and from all wash fractions. (c) % recovery of FAM -ERRγ in each wash fraction of washout experiment. Percentage is obtained by dividing the fluorescence of each sample (see panel a) by the fluorescence signal obtained before capturing (input sample = 100% , see panel a). […]
steps in presence of DMSO, or 100 µM compound 1, 3 or 5. Values are calculated by dividing the fluorescence signal (from panel a) of samples with 14-3-3 with the fluorescence signal of samples without 14-3-3, to correct for non-specific binding of peptide to the magnetic beads. […]
(§1) temperatures are based on three independent experiments from which the average and standard deviations were determined using excel. […]

14-3-3γ/ERRγ complex [2] = biological target: T1, 14-3-3γ/ERRγ complex; test: Time-dependent fluorescence anisotropy (TD-FA) of ternary complex formation; assay type: binding
Method: Time-dependent fluorescence anisotropy (TD-FA) measurements provided insights in the kinetics of ternary complex (14-3-3/ERRγ/lock) formation (Figures S2 and S3). All fragments reached saturation by ∼12 h. […] Carboxamides 4–6 and 8–10 reached saturation within 5 h.
TD-FA experiments were also performed at different pH values to study ternary complex (14-3-3γ/ERRγ/compound) formation and the importance of the imine bond in the molecular lock (Figure 3b,c and Figures S14–S16). […] Similarly, the avidity of the 14-3-3/ERRγ/1 complex at equilibrium was not affected by pH (Figure 3b). In contrast, 5 and 10 elicited an inverse relationship between pH and KD^app (Figure 3c and Figure S14), connected to impaired imine bond formation at low pH.
In contrast, the formation of the ternary complexes of 14-3-3γ/ERRγ/compound with 1, 5, and 10 was time-dependent and pH-responsive (Figure 3b,c and Figures S15 and S16). […] At pH 6.5, the kinetics of disulfide bond formation was 50% slower. For instance, at pH 6.5, the maximum effect of 1 was reached after a 4.2 h incubation, compared to 1.7–0.8 h for pH 7.0–8.0 (Figure S16g). […] Effective disulfide formation thus appeared to aid in the imine bond formation of the dual-covalent locks. Combining the two reactive handles increased the effective molar concentration of the lock within the binding pocket, illustrating the need for dual reactivity and leading to enhanced 14-3-3/ERRγ avidity.
Figure S2. Time resolved fluorescence anisotropy screen. Time dependent results of 14-3-3γ titration to 10 nM fluorescein-labelled ERRγ peptide in presence of 100 µM compound 1-10 (or DMSO as negative control).
Fluorescence anisotropy was measured every 15 minutes for the first 2 hours after which it was measured every hour for 15 hours. The plate was measured one more time after 24 hours incubation.
(1 picture or pasted object on this page, not shown here)
Figure S3. Time-dependent FA-based apparent Kd analysis. Determined apparent K from fluorescence […]
anisotropy binding curves (see figure S1) and plotted over time (top row) for all compounds in this study to show a time dependent decrease in KD (increase in affinity) between 14-3-3γ and ERRγ as induced by the compounds.
Bottom graphs show the normalized version of the top graphs where the KD at t=0h was set to no effect (0%) and […]
Figure S16. Time- and pH dependent FA-based apparent K analysis. (a-c) Determined apparent K from […]
fluorescence anisotropy binding curves (see figure S15) and plotted over time for compounds 1, 5 and 10. Results show a time dependent decrease in KD (increase in affinity) between 14-3-3γ and ERRγ as induced by the compounds over time. […]
as §1

T1 sequence (P61981 whole entry, other chains not shown): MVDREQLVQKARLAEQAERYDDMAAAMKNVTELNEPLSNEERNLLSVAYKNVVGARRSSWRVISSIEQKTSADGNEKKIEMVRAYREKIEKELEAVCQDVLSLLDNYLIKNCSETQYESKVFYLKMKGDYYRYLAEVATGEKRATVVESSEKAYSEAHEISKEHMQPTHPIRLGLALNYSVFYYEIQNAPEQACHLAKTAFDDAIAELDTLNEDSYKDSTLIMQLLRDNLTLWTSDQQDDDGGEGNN

SMILES: CN(C)CCSSCCN(C)C(=O)c1cccc(F)c1 [compound 1, reference compound]
- total recovered ERRγ peptide (14-3-3γ/ERRγ complex [1]): 58%
- initial peptide recovery (14-3-3γ/ERRγ complex [1]): 42%
- binding kinetics (14-3-3γ/ERRγ complex [2]; 100 μM compound, TD-FA): significantly slower binding kinetics than molecular locks 4–10
- incubation time to reach maximum effect (14-3-3γ/ERRγ complex [2]; pH 6.5, 100 μM compound): 4.2 h

SMILES: CN(C)CCSSCCN(C)C(=O)c1ccc(C=O)c(F)c1 [compound 5]
- total recovered ERRγ peptide (14-3-3γ/ERRγ complex [1]): 44%
- initial peptide recovery (14-3-3γ/ERRγ complex [1]): 36%
- binding kinetics (14-3-3γ/ERRγ complex [2]; 100 μM compound, TD-FA): fastest reaction kinetics
- time to saturation of ternary complex formation (14-3-3γ/ERRγ complex [2]; 100 μM compound, TD-FA): 2 h

From article PMC10064330, “Reversible Dual-Covalent Molecular Locking of the 14-3-3/ERRγ Protein–Protein Interaction as a Molecular Glue Drug Discovery Approach” (Journal of the American Chemical Society, 2023)
